“And” between values parts separate entries of the source, which are not always exact repeats. Equal entries are not always repeated.
Assays:
Rattus norvegicus [1] = experiment: Percentage of non disrupted rats that selected the drug lever, when given at a dose of 0.5 mg/kg; type: functional
Rattus norvegicus [2] = experiment: Momoamine and metabolic levels observed 1 week following acute dosing against at a dose of 20 mg/kg Frontal cortex NE; type: ADME, organism-based; design: dose 20 mg/kg; conditions: in vivo, 168 h
Rattus norvegicus [3] = experiment: Momoamine and metabolic levels observed 1 week following acute dosing at a dose of 10 mg/kg Frontal cortex 5-HT; type: ADME, organism-based; design: dose 10 mg/kg; conditions: in vivo, 168 h
Rattus norvegicus [4] = experiment: Percentage of non disrupted rats that selected the drug lever, when given at a dose of 0.25 mg/kg in LSD-Trained rats; type: functional
Rattus norvegicus [5] = experiment: Momoamine and metabolic levels observed 2 weeks following sub-acute dosing against Frontal cortex HVA; type: ADME, organism-based; conditions: in vivo, 336 h
Rattus norvegicus [6] = experiment: Momoamine and metabolic levels observed 2 weeks following sub-acute dosing against Frontal cortex DA; type: ADME, organism-based; conditions: in vivo, 336 h
Rattus norvegicus [7] = experiment: Momoamine and metabolic levels observed at 3 hr postdrug against at a dose of 20 mg/kg Frontal cortex 5-HT; type: ADME, organism-based; design: dose 20 mg/kg; conditions: in vivo
Rattus norvegicus [8] = experiment: Momoamine and metabolic levels observed 1 week following acute dosing against at a dose of 20 mg/kg Frontal cortex DOPAC; type: ADME, organism-based; design: dose 20 mg/kg; conditions: in vivo, 168 h
[9] = biological target: Sodium-dependent serotonin transporter (Rattus norvegicus) (UniProt P31652); experiment: Number of uptake sites for [3H]paroxetine receptor binding after sub-acute dosing against Hippocampus
Chain of Sodium-dependent serotonin transporter (Rattus norvegicus) (P31652 whole entry): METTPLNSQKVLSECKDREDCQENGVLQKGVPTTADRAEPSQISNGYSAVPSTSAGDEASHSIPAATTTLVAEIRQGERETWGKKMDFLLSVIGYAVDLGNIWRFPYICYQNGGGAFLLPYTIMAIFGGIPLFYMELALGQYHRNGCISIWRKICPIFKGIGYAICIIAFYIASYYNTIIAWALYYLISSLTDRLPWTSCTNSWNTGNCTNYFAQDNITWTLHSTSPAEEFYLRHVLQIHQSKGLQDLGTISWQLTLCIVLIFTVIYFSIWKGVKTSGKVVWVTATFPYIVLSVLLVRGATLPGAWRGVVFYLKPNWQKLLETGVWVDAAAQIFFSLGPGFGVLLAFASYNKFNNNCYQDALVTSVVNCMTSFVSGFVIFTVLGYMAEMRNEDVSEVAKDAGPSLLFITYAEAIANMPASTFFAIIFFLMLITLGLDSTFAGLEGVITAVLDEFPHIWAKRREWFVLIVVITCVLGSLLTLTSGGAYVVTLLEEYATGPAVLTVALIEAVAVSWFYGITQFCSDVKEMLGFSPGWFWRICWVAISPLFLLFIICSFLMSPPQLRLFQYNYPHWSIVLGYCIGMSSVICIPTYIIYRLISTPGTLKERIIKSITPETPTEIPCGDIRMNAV

Rattus norvegicus [10] = experiment: Momoamine and metabolic levels observed 1 week following acute dosing at a dose of 10 mg/kg Frontal cortex 5-HIAA; type: ADME, organism-based; design: dose 10 mg/kg; conditions: in vivo, 168 h
Rattus norvegicus [11] = experiment: Momoamine and metabolic levels observed 1 week following acute dosing at a dose of 10 mg/kg Frontal cortex DA; type: ADME, organism-based; design: dose 10 mg/kg; conditions: in vivo, 168 h
Rattus norvegicus [12] = experiment: Momoamine and metabolic levels observed 1 week following acute dosing against at a dose of 10 mg/kg Hippocampus 5-HT; type: ADME, organism-based; design: dose 10 mg/kg; conditions: in vivo, 168 h
Rattus norvegicus [13] = experiment: Percentage of non disrupted rats that selected the drug lever, when given at a dose of 0.5 mg/kg in S-Amphetamine-Trained rats; type: functional
Rattus norvegicus [14] = experiment: Momoamine and metabolic levels observed 1 week following acute dosing against at a dose of 20 mg/kg Hippocampus 5-HT; type: ADME, organism-based; design: dose 20 mg/kg; conditions: in vivo, 168 h
Rattus norvegicus [15] = experiment: Momoamine and metabolic levels observed 2 weeks following sub-acute dosing against Frontal cortex 5-HT; type: ADME, organism-based; conditions: in vivo, 336 h
Rattus norvegicus [16] = experiment: Effective dose was evaluated for drug discrimination in S-trained rats, when given at a dose of 0.25 mg/kg; type: functional
Rattus norvegicus [17] = experiment: Effective dose was evaluated for drug discrimination in I-trained rats, when given at a dose of 1.16 micro mol/kg; type: functional
Rattus norvegicus [18] = experiment: Momoamine and metabolic levels observed 1 week following acute dosing against at a dose of 20 mg/kg Frontal cortex 5-HIAA; type: ADME, organism-based; design: dose 20 mg/kg; conditions: in vivo, 168 h
Rattus norvegicus [19] = experiment: Momoamine and metabolic levels observed 2 weeks following sub-acute dosing against Hippocampus 5-HT; type: ADME, organism-based; conditions: in vivo, 336 h
Rattus norvegicus [20] = experiment: Percentage of non disrupted rats that selected the drug lever, when given at a dose of 1.00 mg/kg; type: functional
Rattus norvegicus [21] = experiment: Momoamine and metabolic levels observed 1 week following acute dosing at a dose of 10 mg/kg Frontal cortex HVA; type: ADME, organism-based; design: dose 10 mg/kg; conditions: in vivo, 168 h
Rattus norvegicus [22] = experiment: Momoamine and metabolic levels observed at 3 hr postdrug against at a dose of 20 mg/kg Frontal cortex DA; type: ADME, organism-based; design: dose 20 mg/kg; conditions: in vivo
Rattus norvegicus [23] = experiment: Momoamine and metabolic levels observed 1 week following acute dosing against at a dose of 20 mg/kg Frontal cortex HVA; type: ADME, organism-based; design: dose 20 mg/kg; conditions: in vivo, 168 h
Rattus norvegicus [24] = experiment: Percentage of non disrupted rats that selected the drug lever, when given at a dose of 0.25 mg/kg; type: functional
Rattus norvegicus [25] = experiment: Momoamine and metabolic levels observed 1 week following acute dosing against at a dose of 10 mg/kg Hippocampus NE; type: ADME, organism-based; design: dose 10 mg/kg; conditions: in vivo, 168 h
Rattus norvegicus [26] = experiment: Momoamine and metabolic levels observed at 3 hr postdrug against at a dose of 20 mg/kg Frontal cortex HVA; type: ADME, organism-based; design: dose 20 mg/kg; conditions: in vivo
Rattus norvegicus [27] = experiment: Momoamine and metabolic levels observed at 3 hr postdrug against at a dose of 20 mg/kg Hippocampus NE; type: ADME, organism-based; design: dose 20 mg/kg; conditions: in vivo
Rattus norvegicus [28] = experiment: Momoamine and metabolic levels observed 1 week following acute dosing against at a dose of 20 mg/kg Frontal cortex 5-HT; type: ADME, organism-based; design: dose 20 mg/kg; conditions: in vivo, 168 h
Rattus norvegicus [29] = experiment: Percentage of non disrupted rats that selected the drug lever, when given at a dose of 0.25 mg/kg in S-Amphetamine-Trained rats; type: functional
Rattus norvegicus [30] = experiment: Momoamine and metabolic levels observed 2 weeks following sub-acute dosing against Frontal cortex DOPAC; type: ADME, organism-based; conditions: in vivo, 336 h
Rattus norvegicus [31] = experiment: Effective dose was evaluated for drug discrimination in I-trained rats, when given at a dose of 0.25 mg/kg; type: functional; conditions: Rattus norvegicus; read-out: ED50
Rattus norvegicus [32] = experiment: Momoamine and metabolic levels observed 2 weeks following sub-acute dosing against Frontal cortex 5-HIAA; type: ADME, organism-based; conditions: in vivo, 336 h
Rattus norvegicus [33] = experiment: Momoamine and metabolic levels observed 2 weeks following sub-acute dosing against Hippocampus 5-HIAA; type: ADME, organism-based; conditions: in vivo, 336 h
Rattus norvegicus [34] = experiment: Effective dose was evaluated for drug discrimination in S-trained rats, when given at a dose of 0.25 umol/kg; type: functional
Rattus norvegicus [35] = experiment: Momoamine and metabolic levels observed 1 week following acute dosing against at a dose of 20 mg/kg Hippocampus NE; type: ADME, organism-based; design: dose 20 mg/kg; conditions: in vivo, 168 h
Rattus norvegicus [36] = experiment: Momoamine and metabolic levels observed at 3 h postdrug against at a dose of 20 mg/kg Frontal cortex DOPAC; type: ADME, organism-based; design: dose 20 mg/kg; conditions: in vivo
Rattus norvegicus [37] = experiment: Momoamine and metabolic levels observed 1 week following acute dosing at a dose of 10 mg/kg Hippocampus 5-HIAA; type: ADME, organism-based; design: dose 10 mg/kg; conditions: in vivo, 168 h
Rattus norvegicus [38] = experiment: Momoamine and metabolic levels observed 1 week following acute dosing against at a dose of 20 mg/kg Frontal cortex DA; type: ADME, organism-based; design: dose 20 mg/kg; conditions: in vivo, 168 h
Rattus norvegicus [39] = experiment: Momoamine and metabolic levels observed at 3 hr postdrug against at a dose of 20 mg/kg Hippocampus 5-HIAA; type: ADME, organism-based; design: dose 20 mg/kg; conditions: in vivo
Rattus norvegicus [40] = experiment: Momoamine and metabolic levels observed 1 week following acute dosing at a dose of 10 mg/kg Frontal cortex DOPAC; type: ADME, organism-based; design: dose 10 mg/kg; conditions: in vivo, 168 h
Rattus norvegicus [41] = experiment: Percentage of non disrupted rats that selected the drug lever, when given at a dose of 2.00 mg/kg in LSD-Trained rats; type: functional
Rattus norvegicus [42] = experiment: Momoamine and metabolic levels observed at 3 hr postdrug against at a dose of 20 mg/kg Frontal cortex NE; type: ADME, organism-based; design: dose 20 mg/kg; conditions: in vivo
Rattus norvegicus [43] = experiment: Percentage of non disrupted rats that selected the drug lever, when given at a dose of 0.50 mg/kg in LSD-Trained rats; type: functional; conditions: dose 0.5 mg/kg
Rattus norvegicus [44] = species on record: Rattus norvegicus; experiment: Compound was evaluated for the uptake inhibition of [3H]-5-HT in rats; type: functional
Rattus norvegicus [45] = experiment: Percentage of non disrupted rats that selected the drug lever, when given at a dose of 1.00 mg/kg in S-Amphetamine-Trained rats; type: functional
Rattus norvegicus [46] = experiment: Percentage of non disrupted rats that selected the drug lever, when given at a dose of 2.00 mg/kg; type: functional
Rattus norvegicus [47] = experiment: Momoamine and metabolic levels observed at 3 hr postdrug against at a dose of 20 mg/kg Frontal cortex 5-HIAA; type: ADME, organism-based; design: dose 20 mg/kg; conditions: in vivo
Rattus norvegicus [48] = experiment: Momoamine and metabolic levels observed 1 week following acute dosing at a dose of 10 mg/kg Frontal cortex NE; type: ADME, organism-based; design: dose 10 mg/kg; conditions: in vivo, 168 h
Rattus norvegicus [49] = experiment: Momoamine and metabolic levels observed 2 weeks following sub-acute dosing against Frontal cortex NE; type: ADME, organism-based; conditions: in vivo, 336 h
Rattus norvegicus [50] = experiment: Momoamine and metabolic levels observed 1 week following acute dosing against at a dose of 20 mg/kg Hippocampus 5-HIAA; type: ADME, organism-based; design: dose 20 mg/kg; conditions: in vivo, 168 h
[51] = biological target: Sodium-dependent serotonin transporter (Rattus norvegicus) (UniProt P31652); experiment: Number of uptake sites for [3H]paroxetine receptor binding after sub-acute dosing against Frontal cortex; type: tissue-based
Rattus norvegicus [52] = experiment: Momoamine and metabolic levels observed 2 weeks following sub-acute dosing against Hippocampus NE; type: ADME, organism-based; conditions: in vivo, 336 h
Rattus norvegicus [53] = species on record: Rattus norvegicus; experiment: Effective dose was evaluated for drug discrimination in I-trained rats; type: functional

## COc1cc(CC(C)N)ccc1C (stereo not given)
Rattus norvegicus [1]
  SDL: 50%
Rattus norvegicus [2]
  Metabolite level: 487
Rattus norvegicus [3]
  Metabolite level: 281
Rattus norvegicus [4]
  SDL: 0%
Rattus norvegicus [5]
  Metabolite level: 62
Rattus norvegicus [6]
  Metabolite level: 83
Rattus norvegicus [7]
  Metabolite level: 212
Rattus norvegicus [8]
  Metabolite level: 45
[9]
  No. of uptake sites: 14.9
Rattus norvegicus [10]
  Metabolite level: 233
Rattus norvegicus [11]
  Metabolite level: 88
Rattus norvegicus [12]
  Metabolite level: 255
Rattus norvegicus [13]
  SDL: 0%
Rattus norvegicus [14]
  Metabolite level: 431
Rattus norvegicus [15]
  Metabolite level: 411
Rattus norvegicus [16]
  ED50: 0.47 mg/kg
Rattus norvegicus [17]
  ED50: 2.74 µmol/kg
Rattus norvegicus [18]
  Metabolite level: 229
Rattus norvegicus [19]
  Metabolite level: 392
Rattus norvegicus [20]
  SDL: 63%
Rattus norvegicus [21]
  Metabolite level: 70
Rattus norvegicus [22]
  Metabolite level: 120
Rattus norvegicus [23]
  Metabolite level: 85
Rattus norvegicus [24]
  SDL: 11%
Rattus norvegicus [25]
  Metabolite level: 620
Rattus norvegicus [26]
  Metabolite level: 138
Rattus norvegicus [27]
  Metabolite level: 641
Rattus norvegicus [28]
  Metabolite level: 316
Rattus norvegicus [29]
  SDL: 0%
Rattus norvegicus [30]
  Metabolite level: 74
Rattus norvegicus [31]
  ED50: 0.59 mg/kg
Rattus norvegicus [32]
  Metabolite level: 253
Rattus norvegicus [33]
  Metabolite level: 503
Rattus norvegicus [34]
  ED50: 2.16 µmol/kg
Rattus norvegicus [35]
  Metabolite level: 578
Rattus norvegicus [36]
  Metabolite level: 46
Rattus norvegicus [37]
  Metabolite level: 460
Rattus norvegicus [38]
  Metabolite level: 86
Rattus norvegicus [39]
  Metabolite level: 260
Rattus norvegicus [40]
  Metabolite level: 39
Rattus norvegicus [41]
  SDL: 75%
Rattus norvegicus [42]
  Metabolite level: 585
Rattus norvegicus [43]
  SDL: 38%
Rattus norvegicus [44]
  IC50: 0.136 µM
Rattus norvegicus [45]
  SDL: 0%
Rattus norvegicus [46]
  SDL: 100%
Rattus norvegicus [47]
  Metabolite level: 139
Rattus norvegicus [48]
  Metabolite level: 394
Rattus norvegicus [49]
  Metabolite level: 573
Rattus norvegicus [50]
  Metabolite level: 430
[51]
  No. of uptake sites: 12.3
Rattus norvegicus [52]
  Metabolite level: 724

## COc1cc(CC(C)N)c(OC)cc1C (stereo not given) [DOM]
Rattus norvegicus [44]
  IC50: 10.7 µM

## CC[C@@H](Cc1ccc2c(c1)OCO2)NC
Rattus norvegicus [53]
  ED50: 0.79 mg/kg and 3.25 µmol/kg

## CNC(C)Cc1ccc2c(c1)OCO2 (stereo not given) [MIDOMAFETAMINE]
Rattus norvegicus [53]
  ED50: 0.64 mg/kg and 2.79 µmol/kg
